Experimental data published in patent publication US6909001B2 (Pharmacia Corporation, priority 2002, dated 2005).

Columns and labels:
[1] = tested on: LPS-induced TNFα production; assay: Lipopolysaccharide (LPS)-Induced TNFα Production (Rat LPS Assay); assay type: in vivo; details: at 20 mpk (IP)
[2] = tested on: MK-2; details: cited from earlier work
[3] = tested on: endotoxin-induced shock; details: murine model of endotoxin-induced shock; cited from earlier work
[4] = tested on: collagen-induced arthritis; details: mouse; cited from earlier work
[5] = tested on: adjuvant arthritis; details: rat; cited from earlier work
[6] = tested on: granulomas; details: laboratory rats; cited from earlier work

N#Cc1c(N)nc2c(c1N)Cc1ccc(OCCN)cc1O2 [Example 12, 2,4-diamino-8-(2-aminoethoxy)-5H-chromeno[2,3-b]pyridine-3-carbonitrile]
Rat LPS Assay inhibition [1]: 88%

C[S+]([O-])c1ccc(-c2nc(-c3ccncc3)c(-c3ccc(F)cc3)[nH]2)cc1 (stereo not drawn) [SB203580]
inhibition of activation of MK-2 [2]: inhibit activation of MK-2
mortality [3]: reduce mortality
development of collagen-induced arthritis [4]: inhibit the development
development of adjuvant arthritis [5]: inhibit the development

Nc1nccc(-c2c(-c3ccc(F)cc3)ncn2C2CCNCC2)n1 [SB 220025]
vascular density of granulomas [6]: significant dose-dependent decrease in vascular density of granulomas
